The NIST ThermoML archive (doi:10.1016/j.tca.2012.05.025)
Numbers after ± are expanded uncertainties.

Test: refractive index (Na D-line) (dimensionless); xn = mol fraction of the nth substance listed
Details: 101 kPa, Liquid, Standard Abbe refractometry

CN(C)CCCO [3-dimethylamino-1-propanol] + O
refractive index
Details	x1 = 0.098	x1 = 0.197	x1 = 0.293	x1 = 0.398	x1 = 0.5	x1 = 0.598	x1 = 0.7	x1 = 0.795	x1 = 0.9	x1 = 1
293.15 K	1.3569 ± 0.005	1.3653 ± 0.005	1.3763 ± 0.005	1.4033 ± 0.005	1.4193 ± 0.005	1.4284 ± 0.005	1.4345 ± 0.005	1.4393 ± 0.005	1.443 ± 0.005	1.4368 ± 0.005
298.15 K	1.3562 ± 0.005	1.3644 ± 0.005	1.3752 ± 0.005	1.4018 ± 0.005	1.4172 ± 0.005	1.4268 ± 0.005	1.4329 ± 0.005	1.4377 ± 0.005	1.4405 ± 0.005	1.4347 ± 0.005
303.15 K	1.35534 ± 0.005	1.3635 ± 0.005	1.3742 ± 0.005	1.4004 ± 0.005	1.4155 ± 0.005	1.4251 ± 0.005	1.431 ± 0.005	1.4359 ± 0.005	1.439 ± 0.005	1.4326 ± 0.005
308.15 K	1.3545 ± 0.005	1.3625 ± 0.005	1.3731 ± 0.005	1.3987 ± 0.005	1.4139 ± 0.005	1.4233 ± 0.005	1.4291 ± 0.005	1.4338 ± 0.005	1.4369 ± 0.005	1.4305 ± 0.005
313.15 K	1.3537 ± 0.005	1.3615 ± 0.005	1.3719 ± 0.005	1.3972 ± 0.005	1.4121 ± 0.005	1.4216 ± 0.005	1.4273 ± 0.005	1.4319 ± 0.005	1.4349 ± 0.005	1.4285 ± 0.005
318.15 K	1.3528 ± 0.005	1.3605 ± 0.005	1.3708 ± 0.005	1.3956 ± 0.005	1.4105 ± 0.005	1.4199 ± 0.005	1.4255 ± 0.005	1.4302 ± 0.005	1.4324 ± 0.005	1.4264 ± 0.005
323.15 K	1.3517 ± 0.005	1.3593 ± 0.005	1.3696 ± 0.005	1.3947 ± 0.005	1.4088 ± 0.005	1.418 ± 0.005	1.4239 ± 0.005	1.4286 ± 0.005	1.4315 ± 0.005	1.4243 ± 0.005
328.15 K	1.3506 ± 0.005	1.3582 ± 0.005	1.3682 ± 0.005	1.3925 ± 0.005	1.4072 ± 0.005	1.4164 ± 0.005	1.4226 ± 0.005	1.427 ± 0.005	1.4301 ± 0.005	1.4222 ± 0.005
333.15 K	1.3502 ± 0.005	1.3571 ± 0.005	1.3671 ± 0.005	1.391 ± 0.005	1.4056 ± 0.005	1.4146 ± 0.005	1.4204 ± 0.005	1.4245 ± 0.005	1.4278 ± 0.005	1.42 ± 0.005
